From ChEMBL document CHEMBL1141899, “QSAR studies on 1,2-dithiole-3-thiones: modeling of lipophilicity, quinone reductase specific activity, and production of growth hormone” (Bioorg Med Chem Lett, 2005)

Legend:
[1] = target: NAD(P)H dehydrogenase [quinone] 1 (Homo sapiens) (UniProt P15559)
Description: Increased quinone reductase specific activity

physchem = details: octanol/water
Description: Partition coefficient (logP)

Sequence of NAD(P)H dehydrogenase [quinone] 1 (Homo sapiens) (P15559 whole entry): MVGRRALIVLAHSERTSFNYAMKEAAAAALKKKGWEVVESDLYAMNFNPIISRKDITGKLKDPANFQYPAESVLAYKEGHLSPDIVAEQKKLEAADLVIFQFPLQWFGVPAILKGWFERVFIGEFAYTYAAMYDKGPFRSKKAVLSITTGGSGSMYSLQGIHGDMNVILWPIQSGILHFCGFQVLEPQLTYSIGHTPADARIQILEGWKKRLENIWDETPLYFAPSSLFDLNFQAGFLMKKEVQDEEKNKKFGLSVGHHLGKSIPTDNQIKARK

Row | Log CDQR [1] | logP (physchem) | Compound
1 | 1.3 | – | S=c1cc(-c2ccccc2)ss1
2 | 0.903 | – | CCc1cc(=S)ss1
3 | 1.23 | 1.85 | Cc1cc(=S)ss1
4 | 0.176 | – | S=c1ccss1
5 | 0.903 | – | CCc1cssc1=S
6 | 1.25 | – | COc1ccc(-c2cc(=S)ss2)cc1
7 | 1.66 | 0.3 | NC(=O)c1cssc1=S
8 | 1.34 | 2.79 | Cc1c(-c2cnccn2)ssc1=S [OLTIPRAZ]
9 | 1.3 | 0.01 | NC(=O)c1cc(=S)ss1
10 | 1.38 | 1.33 | O=C(O)c1cssc1=S
11 | 1.34 | – | Cc1ssc(=S)c1C
12 | 0.342 | 1.8 | S=C1CC(c2cc(=S)ss2)SS1 (configuration not stated)
13 | -0.602 | 2.53 | S=c1ssc2c1CCCCCCCC2
14 | 1.9 | 1.05 | O=C(O)c1cc(=S)ss1
15 | 1.08 | – | Cc1cssc1=S
16 | 0.301 | – | S=c1sscc1-c1ccccc1
17 | 0.699 | 3.25 | CC(C)(C)c1cc(=S)ss1
18 | 1.58 | – | COc1ccc(-c2ssc(=S)c2C)cc1
